According to US20260048047A1, “SMALL-MOLECULE ACTIVATORS OF MYCOBACTERIUM TUBERCULOSIS ADENYLYL CYCLASE” (priority 2022, published 2026):

The molecules below were run on M. tuberculosis (assay: Extracellular activity against M. tuberculosis in cholesterol media (Alamar Blue reduction assay)). Settings: Mycobacterium tuberculosis, 240 h, 7H12-Cholesterol media, 10 days; read-out: Cholesterol broth: alamar blue--EC50.
Format: cell-based, Mycobacterium tuberculosis

Q: For `Cc1noc(CC(=O)N2CC3CC(C2)C3c2nc(-c3ccc(F)c(F)c3)no2)n1` (stereo not shown) [Compound 208, 1-(6-(3-(3,4-difluorophenyl)-1,2,4-oxadiazol-5-yl)-3-azabicyclo[3.1.1]heptan-3-yl)-2-(3-methyl-1,2,4-oxadiazol-5-yl)ethan-1-one], which EC50 is on record?
A: The EC50 was no less than 10000 nM.

Q: Which EC50 does the source give for `Cc1noc(CC(=O)N2CC3CC(C2)C3c2nc(-c3ccc(F)cc3)no2)n1` (stereo not shown) [Compound 209, 1-(6-(3-(4-fluorophenyl)-1,2,4-oxadiazol-5-yl)-3-azabicyclo[3.1.1]heptan-3-yl)-2-(3-methyl-1,2,4-oxadiazol-5-yl)ethan-1-one] here?
A: The EC50 was no less than 10000 nM.

Q: With `Cc1nocc1CC(=O)N1CC2CC(C1)C2c1nc(-c2ccc(F)cc2)no1` (stereo not shown) [Compound 210, 1-(6-(3-(4-fluorophenyl)-1,2,4-oxadiazol-5-yl)-3-azabicyclo[3.1.1]heptan-3-yl)-2-(3-methylisoxazol-4-yl)ethan-1-one] as the molecule, how does the EC50 read?
A: The EC50 was no less than 25000 nM.

Q: For `Cc1nonc1CC(=O)N1CC2CC(C1)C2c1nc(C2CCC(C)(F)CC2)no1` (stereo not shown) [Compound 211, 1-(6-(3-(4-fluoro-4-methylcyclohexyl)-1,2,4-oxadiazol-5-yl)-3-azabicyclo[3.1.1]heptan-3-yl)-2-(4-methyl-1,2,5-oxadiazol-3-yl)ethan-1-one], which EC50 is on record?
A: The EC50 was 3760 nM.

Q: For `Cc1nonc1CC(=O)N1CC2CC(C1)C2c1nc(-c2ccc(Cl)c(Cl)c2)no1` (stereo not shown) [Compound 212, 1-(6-(3-(3,4-dichlorophenyl)-1,2,4-oxadiazol-5-yl)-3-azabicyclo[3.1.1]heptan-3-yl)-2-(4-methyl-1,2,5-oxadiazol-3-yl)ethan-1-one], which EC50 is on record?
A: The EC50 was 5010 nM.

Q: `Cc1nonc1CC(=O)N1CC2CC(C1)C2c1nc(C2CCC(F)(F)CC2)no1` (stereo not shown) [Compound 213, 1-(6-(3-(4,4-difluorocyclohexyl)-1,2,4-oxadiazol-5-yl)-3-azabicyclo[3.1.1]heptan-3-yl)-2-(4-methyl-1,2,5-oxadiazol-3-yl)ethan-1-one] was tested. Which EC50 did it give?
A: The EC50 was 488 nM.

Q: `Cc1nonc1CC(=O)N1CC2CC(C1)C2c1nc(-c2ccc(F)c(F)c2)no1` (stereo not shown) [Compound 214, 1-(6-(3-(3,4-difluorophenyl)-1,2,4-oxadiazol-5-yl)-3-azabicyclo[3.1.1]heptan-3-yl)-2-(4-methyl-1,2,5-oxadiazol-3-yl)ethan-1-one] was tested. Which EC50 did it give?
A: Its EC50 is 5050 nM.

Q: `Cc1nonc1CC(=O)N1CC2CC(C1)C2c1nc(-c2ccc(F)cc2)no1` (stereo not shown) [Compound 215, 1-(6-(3-(4-fluorophenyl)-1,2,4-oxadiazol-5-yl)-3-azabicyclo[3.1.1]heptan-3-yl)-2-(4-methyl-1,2,5-oxadiazol-3-yl)ethan-1-one] was tested. Which EC50 did it give?
A: Its EC50 is 132 nM.

Q: How did the EC50 turn out when `Cn1ncnc1CC(=O)N1CC2CC(C1)C2c1nc(-c2ccc(Cl)c(Cl)c2)no1` (stereo not shown) [Compound 216, 1-(6-(3-(3,4-dichlorophenyl)-1,2,4-oxadiazol-5-yl)-3-azabicyclo[3.1.1]heptan-3-yl)-2-(1-methyl-1H-1,2,4-triazol-5-yl)ethan-1-one] was run?
A: Its EC50 is greater than 10000 nM.

Q: For `Cn1ncnc1CC(=O)N1C[C@H]2C[C@@H](C1)[C@@H]2c1nc(-c2ccc(Cl)c(Cl)c2)no1` [Compound 217, 1-((1R,5S,6r)-6-(3-(3,4-dichlorophenyl)-1,2,4-oxadiazol-5-yl)-3-azabicyclo[3.1.1]heptan-3-yl)-2-(1-methyl-1H-1,2,4-triazol-5-yl)ethan-1-one], which EC50 is on record?
A: The EC50 was 100 nM.

Q: `Cn1ncnc1CC(=O)N1C[C@H]2C[C@@H](C1)[C@H]2c1nc(-c2ccc(Cl)c(Cl)c2)no1` [Compound 218, 1-((1R,5S,6s)-6-(3-(3,4-dichlorophenyl)-1,2,4-oxadiazol-5-yl)-3-azabicyclo[3.1.1]heptan-3-yl)-2-(1-methyl-1H-1,2,4-triazol-5-yl)ethan-1-one] was tested. Which EC50 did it give?
A: Its EC50 is greater than 10000 nM.

Q: With `Cn1ncnc1CC(=O)N1C[C@H]2C[C@@H](C1)[C@H]2c1nc(-c2ccc(Cl)cc2)no1` [Compound 219, 1-((1R,5S,6s)-6-(3-(4-chlorophenyl)-1,2,4-oxadiazol-5-yl)-3-azabicyclo[3.1.1]heptan-3-yl)-2-(1-methyl-1H-1,2,4-triazol-5-yl)ethan-1-one] as the molecule, how does the EC50 read?
A: The EC50 was greater than 10000 nM.

Q: For `Cn1ncnc1CC(=O)N1C[C@H]2C[C@@H](C1)[C@@H]2c1nc(-c2ccc(Cl)cc2)no1` [Compound 220, 1-((1R,5S,6r)-6-(3-(4-chlorophenyl)-1,2,4-oxadiazol-5-yl)-3-azabicyclo[3.1.1]heptan-3-yl)-2-(1-methyl-1H-1,2,4-triazol-5-yl)ethan-1-one], which EC50 is on record?
A: The EC50 was 140 nM.

Q: `Cn1ncnc1CC(=O)N1C[C@H]2C[C@@H](C1)[C@@H]2c1nc(-c2ccc(Cl)c(F)c2)no1` [Compound 221, 1-((1R,5S,6r)-6-(3-(4-chloro-3-fluorophenyl)-1,2,4-oxadiazol-5-yl)-3-azabicyclo[3.1.1]heptan-3-yl)-2-(1-methyl-1H-1,2,4-triazol-5-yl)ethan-1-one] was tested. Which EC50 did it give?
A: The EC50 was 100 nM.

Q: For `Cn1ncnc1CC(=O)N1C[C@H]2C[C@@H](C1)[C@H]2c1nc(-c2ccc(Cl)c(F)c2)no1` [Compound 222, 1-((1R,5S,6s)-6-(3-(4-chloro-3-fluorophenyl)-1,2,4-oxadiazol-5-yl)-3-azabicyclo[3.1.1]heptan-3-yl)-2-(1-methyl-1H-1,2,4-triazol-5-yl)ethan-1-one], which EC50 is on record?
A: Its EC50 is greater than 10000 nM.

Q: With `Cn1ncnc1CC(=O)N1C[C@H]2C[C@@H](C1)[C@@H]2c1nc(-c2ccc(Cl)cc2F)no1` [Compound 223, 1-((1R,5S,6r)-6-(3-(4-chloro-2-fluorophenyl)-1,2,4-oxadiazol-5-yl)-3-azabicyclo[3.1.1]heptan-3-yl)-2-(1-methyl-1H-1,2,4-triazol-5-yl)ethan-1-one] as the molecule, how does the EC50 read?
A: The EC50 was 290 nM.

Q: `Cn1ncnc1CC(=O)N1C[C@H]2C[C@@H](C1)[C@H]2c1nc(-c2ccc(Cl)cc2F)no1` [Compound 224, 1-((1R,5S,6s)-6-(3-(4-chloro-2-fluorophenyl)-1,2,4-oxadiazol-5-yl)-3-azabicyclo[3.1.1]heptan-3-yl)-2-(1-methyl-1H-1,2,4-triazol-5-yl)ethan-1-one] was tested. Which EC50 did it give?
A: The EC50 was greater than 10000 nM.

Q: For `Cc1noc(CC(=O)N2CCC3(CC2)CC(c2nc(C4CCCCC4)no2)C3)n1` [Compound 225, 1-(2-(3-cyclohexyl-1,2,4-oxadiazol-5-yl)-7-azaspiro[3.5]nonan-7-yl)-2-(3-methyl-1,2,4-oxadiazol-5-yl)ethan-1-one], which EC50 is on record?
A: The EC50 was greater than 10000 nM.

Q: `Cc1noc(CC(=O)N2CCC3(CC2)CC(c2nc(-c4ccc(Cl)c(Cl)c4)no2)C3)n1` [Compound 226, 1-(2-(3-(3,4-dichlorophenyl)-1,2,4-oxadiazol-5-yl)-7-azaspiro[3.5]nonan-7-yl)-2-(3-methyl-1,2,4-oxadiazol-5-yl)ethan-1-one] was tested. Which EC50 did it give?
A: Its EC50 is 109 nM.

Q: With `Cc1noc(CC(=O)N2CCC3(CC2)CC(c2nc(C4CCC(F)(F)CC4)no2)C3)n1` [Compound 227, 1-(2-(3-(4,4-difluorocyclohexyl)-1,2,4-oxadiazol-5-yl)-7-azaspiro[3.5]nonan-7-yl)-2-(3-methyl-1,2,4-oxadiazol-5-yl)ethan-1-one] as the molecule, how does the EC50 read?
A: The EC50 was greater than 10000 nM.

Q: With `Cc1noc(CC(=O)N2CCC3(CC2)CC(c2nc(-c4ccc(F)c(F)c4)no2)C3)n1` [Compound 228, 1-(2-(3-(3,4-difluorophenyl)-1,2,4-oxadiazol-5-yl)-7-azaspiro[3.5]nonan-7-yl)-2-(3-methyl-1,2,4-oxadiazol-5-yl)ethan-1-one] as the molecule, how does the EC50 read?
A: The EC50 was 294 nM.

Q: Which EC50 does the source give for `Cc1nonc1CC(=O)N1CCC2(CC1)CC(c1nc(C3CCCCC3)no1)C2` [Compound 229, 1-(2-(3-cyclohexyl-1,2,4-oxadiazol-5-yl)-7-azaspiro[3.5]nonan-7-yl)-2-(4-methyl-1,2,5-oxadiazol-3-yl)ethan-1-one] here?
A: Its EC50 is 3060 nM.

Q: For `Cc1nonc1CC(=O)N1CCC2(CC1)CC(c1nc(-c3ccc(Cl)c(Cl)c3)no1)C2` [Compound 230, 1-(2-(3-(3,4-dichlorophenyl)-1,2,4-oxadiazol-5-yl)-7-azaspiro[3.5]nonan-7-yl)-2-(4-methyl-1,2,5-oxadiazol-3-yl)ethan-1-one], which EC50 is on record?
A: The EC50 was 176 nM.

Q: `Cc1nonc1CC(=O)N1CCC2(CC1)CC(c1nc(C3CCC(F)(F)CC3)no1)C2` [Compound 231, 1-(2-(3-(4,4-difluorocyclohexyl)-1,2,4-oxadiazol-5-yl)-7-azaspiro[3.5]nonan-7-yl)-2-(4-methyl-1,2,5-oxadiazol-3-yl)ethan-1-one] was tested. Which EC50 did it give?
A: Its EC50 is greater than 10000 nM.

Q: Which EC50 does the source give for `Cc1nonc1CC(=O)N1CCC2(CC1)CC(c1nc(-c3ccc(F)c(F)c3)no1)C2` [Compound 232, 1-(2-(3-(3,4-difluorophenyl)-1,2,4-oxadiazol-5-yl)-7-azaspiro[3.5]nonan-7-yl)-2-(4-methyl-1,2,5-oxadiazol-3-yl)ethan-1-one] here?
A: The EC50 was 257 nM.

Q: With `Cc1nonc1CC(=O)N1CCC2(CC1)CC(c1nc(-c3ccc(F)cc3)no1)C2` [Compound 233, 1-(2-(3-(4-fluorophenyl)-1,2,4-oxadiazol-5-yl)-7-azaspiro[3.5]nonan-7-yl)-2-(4-methyl-1,2,5-oxadiazol-3-yl)ethan-1-one] as the molecule, how does the EC50 read?
A: The EC50 was 450 nM.

Q: How did the EC50 turn out when `Cc1noc(CC(=O)N2CCN(c3nc(-c4ccc(Cl)c(Cl)c4)no3)CC2)n1` [Compound 234, 1-(4-(3-(3,4-dichlorophenyl)-1,2,4-oxadiazol-5-yl)piperazin-1-yl)-2-(3-methyl-1,2,4-oxadiazol-5-yl)ethan-1-one] was run?
A: Its EC50 is greater than 10000 nM.

Q: With `Cc1nonc1CC(=O)N1CCN(c2nc(-c3ccc(Cl)c(Cl)c3)no2)CC1` [Compound 235, 1-(4-(3-(3,4-dichlorophenyl)-1,2,4-oxadiazol-5-yl)piperazin-1-yl)-2-(4-methyl-1,2,5-oxadiazol-3-yl)ethan-1-one] as the molecule, how does the EC50 read?
A: The EC50 was 270 nM.

Q: How did the EC50 turn out when `Cc1nonc1CC(=O)N1CCN(c2nc(-c3ccc(F)cc3)no2)CC1` [Compound 236, 1-(4-(3-(4-fluorophenyl)-1,2,4-oxadiazol-5-yl)piperazin-1-yl)-2-(4-methyl-1,2,5-oxadiazol-3-yl)ethan-1-one] was run?
A: Its EC50 is 649 nM.

Q: Which EC50 does the source give for `Cc1nonc1CC(=O)N1CCC2(CC1)CC2c1nc(-c2ccc(F)cc2)no1` (stereo not shown) [Compound 237, 1-(1-(3-(4-fluorophenyl)-1,2,4-oxadiazol-5-yl)-6-azaspiro[2.5]octan-6-yl)-2-(4-methyl-1,2,5-oxadiazol-3-yl)ethan-1-one] here?
A: The EC50 was greater than 10000 nM.

Q: Which EC50 does the source give for `Cc1noc(CC(=O)N2CCC3(CC2)CC3c2nc(-c3ccc(F)cc3)no2)n1` (stereo not shown) [Compound 238, 1-(1-(3-(4-fluorophenyl)-1,2,4-oxadiazol-5-yl)-6-azaspiro[2.5]octan-6-yl)-2-(3-methyl-1,2,4-oxadiazol-5-yl)ethan-1-one] here?
A: The EC50 was greater than 10000 nM.
